The text below walks through data of patent US8846750B2, “Pharmaceutical and food compositions for preventing or treating diabetes or obesity” (Korea Ocean Research and Development Institute, priority 2010, dated 2014).

The structures appear in SMILES notation.

The nature of this data set: Solubility in water. It is filed as physicochemical. As to conditions: dissolved in water. The method, then: 10 mg (22 umol) of the lobaric acid obtained in Example 1-2 was dissolved in 3 ml of acetone, and 50 ul of 1M NaHCO3 was added thereto, followed by stirring for 1-2 minutes. The solid precipitated on adding the NaHCO3 was filtered out, immediately after which it was completely concentrated by a rotary evaporator. After completion of the concentration, sodium lobarate (<10 mg) could be obtained as a white solid. Then, in order to remove excess salt from the product to increase the purity, the product was analyzed by reverse phase HPLC using Agilent Eclipse XDB-C18 column (4.6×150 mm, USA). The solvent system used in the analysis was composed of line A and line B which supplied 0.1% formic acid-containing water and 0.1% formic acid-containing acetonitrile, respectively. The elution conditions were as follows: 40% to 50% acetonitrile for 5 min; 50% to 80% acetonitrile for 15 min; and 80% to 90% acetonitrile for 10 min. The final purity was 92.1% (see FIG. 1).

As to `CCCCCc1c2c(cc(O)c1C(=O)[O-])OC(=O)c1c(cc(OC)cc1C(=O)CCCC)O2.[Na+]` [sodium lobarate], the water solubility result was “water-soluble”.
